One data set deals with CCRF-CEM. In words: Tested in vitro for cellular cytotoxicity against human T-cell derived lymphoblastic leukemia (CCRF-CEM) cells. Format: functional, cell-based.
Data set [1] addresses T1, Folylpolyglutamate synthase, mitochondrial (Homo sapiens) (UniProt Q05932).
T1 sequence (whole entry): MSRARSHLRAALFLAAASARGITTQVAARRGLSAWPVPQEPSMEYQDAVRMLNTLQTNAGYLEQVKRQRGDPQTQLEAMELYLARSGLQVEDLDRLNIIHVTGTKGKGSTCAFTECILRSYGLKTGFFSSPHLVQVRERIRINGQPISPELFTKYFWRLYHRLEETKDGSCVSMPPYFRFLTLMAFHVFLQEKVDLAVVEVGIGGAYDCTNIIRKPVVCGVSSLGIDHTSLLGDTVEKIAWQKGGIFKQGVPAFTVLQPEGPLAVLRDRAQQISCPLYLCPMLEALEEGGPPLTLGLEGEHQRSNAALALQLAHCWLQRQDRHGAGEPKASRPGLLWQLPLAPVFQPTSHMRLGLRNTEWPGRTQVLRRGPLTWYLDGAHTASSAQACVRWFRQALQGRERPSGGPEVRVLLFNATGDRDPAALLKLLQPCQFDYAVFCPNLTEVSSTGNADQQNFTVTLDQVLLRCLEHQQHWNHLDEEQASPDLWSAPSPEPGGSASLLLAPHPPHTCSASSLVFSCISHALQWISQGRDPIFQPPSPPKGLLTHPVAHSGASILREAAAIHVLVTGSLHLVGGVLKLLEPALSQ
Put plainly: Ratio of Vmax to Km value and expressed as k'. Particulars: Sus scrofa.

Data set [2] deals with T2, Trifunctional purine biosynthetic protein adenosine-3 (Mus musculus, UniProt Q64737).
T2 sequence (Q64737 whole entry): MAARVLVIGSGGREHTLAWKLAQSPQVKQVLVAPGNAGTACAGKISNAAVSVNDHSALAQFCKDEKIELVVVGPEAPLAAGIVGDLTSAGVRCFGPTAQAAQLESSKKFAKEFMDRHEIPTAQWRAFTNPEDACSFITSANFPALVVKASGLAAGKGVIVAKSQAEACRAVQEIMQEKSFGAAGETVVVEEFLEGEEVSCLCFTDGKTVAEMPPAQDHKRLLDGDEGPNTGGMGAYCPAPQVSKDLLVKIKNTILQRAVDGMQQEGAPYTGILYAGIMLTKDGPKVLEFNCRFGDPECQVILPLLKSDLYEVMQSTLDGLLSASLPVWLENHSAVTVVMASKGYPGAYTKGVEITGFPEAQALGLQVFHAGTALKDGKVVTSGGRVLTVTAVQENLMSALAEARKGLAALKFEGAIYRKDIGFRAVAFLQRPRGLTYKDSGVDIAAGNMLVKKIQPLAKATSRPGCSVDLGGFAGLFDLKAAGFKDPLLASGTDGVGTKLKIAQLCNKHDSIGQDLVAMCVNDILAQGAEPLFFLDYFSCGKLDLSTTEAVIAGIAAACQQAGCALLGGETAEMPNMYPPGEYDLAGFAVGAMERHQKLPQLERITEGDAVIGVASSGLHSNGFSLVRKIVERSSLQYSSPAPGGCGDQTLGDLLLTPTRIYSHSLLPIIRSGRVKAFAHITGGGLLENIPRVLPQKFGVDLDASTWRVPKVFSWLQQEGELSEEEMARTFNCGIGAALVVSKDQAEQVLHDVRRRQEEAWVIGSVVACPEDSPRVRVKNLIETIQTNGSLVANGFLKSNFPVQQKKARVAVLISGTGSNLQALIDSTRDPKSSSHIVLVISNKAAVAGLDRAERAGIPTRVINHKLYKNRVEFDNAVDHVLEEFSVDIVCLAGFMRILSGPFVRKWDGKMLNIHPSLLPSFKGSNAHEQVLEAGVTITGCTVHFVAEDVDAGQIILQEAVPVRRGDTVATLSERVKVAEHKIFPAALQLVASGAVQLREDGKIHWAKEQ
Put plainly: Tested in vitro for its inhibition of trifunctional glycinamide ribonucleotide formyltransferase (GARFT) isolated from murine L1210 leukemia cells.

Substrate in data set [3]: Nc1cc2c(c(O)n1)CC(CCc1ccc(C(=O)N[C@@H](CCC(=O)O)C(=O)O)cc1)CCN2
Description: In vitro Folyl-poly-gamma-glutamyl synthetase (FPGS) affinity
Particulars: Sus scrofa.

As for `Nc1cc2c(c(O)n1)CC(CCc1ccc(C(=O)N[C@@H](CCC(=O)O)C(=O)O)cc1)CCN2` (some centres undefined), in the data set with CCRF-CEM, the IC50 came out at 47 nM. Moreover, the k' in data set [1] stood at 20. The inhibition constant Ki in data set [2] turned out to be 147 nM.
Regarding `Nc1nc2c(c(=O)[nH]1)C[C@H](CCc1ccc(C(=O)NC(CCC(=O)O)C(=O)O)cc1)CN2` (some centres undefined), the concentration for half-maximal inhibition (IC50) in the data set on CCRF-CEM turned out to be 16 nM. Moreover, in data set [2], the Ki was 120 nM.
For the molecule `Nc1nc2c(c(=O)[nH]1)C[C@@H](CCc1ccc(C(=O)N[C@@H](CCC(=O)O)C(=O)O)cc1)CN2` [LOMETREXOL], the 50% inhibitory concentration (IC50) with CCRF-CEM turned out to be 15.2 nM. For the same molecule, the k' in data set [1] stood at 59. Moreover, the affinity in data set [2], expressed as Ki, was 59.7 nM.

B1: Folylpolyglutamate synthase, mitochondrial (Homo sapiens), Q05932 (protein)
chain: T1 sequence (whole entry)
For the molecule B1, in data set [3], the Michaelis-Menten constant (Km) was 39 µM.

Broadly, the IC50 is the point on the concentration scale where inhibition reaches its midpoint. As a reminder, the Ki is the dissociation constant of the complex between target and ligand, obtained from inhibition or displacement. A higher Ki goes with weaker binding. The term Km denotes the concentration of substrate that gives half-maximal velocity.

For the origin of these results see ChEMBL document CHEMBL1129843, “Synthesis of a pyrimido[4,5-b]azepine analog of 5,10-dideaza-5,6,7,8-tetrahydrofolic acid (DDATHF)” (Bioorg Med Chem Lett, 1997).
